In ChEMBL document CHEMBL5154736, “Stereochemically altered cephalosporins as potent inhibitors of New Delhi metallo-β-lactamases” (Eur J Med Chem, 2022):
Converted amounts (≈) assume the structure as drawn. The source made the active and inactive calls. The calls are words filed in the database; no cut-off is given here.

Columns and labels:
[1] = Inhibition of bacterial NDM-1 using CDC-1 as substrate incubated for 30 mins; parameters: species or system Bacteria
[2] = test system: Escherichia coli; assay: Antibacterial activity against Escherichia coli expressing NDM-1 measured by broth microdilution method; type: functional
[3] = Inhibition of bacterial IMP-1 using CDC-1 as substrate incubated for 30 mins; parameters: species or system Bacteria
[4] = Inhibition of bacterial VIM-27 using CDC-1 as substrate incubated for 30 mins; parameters: species or system Bacteria
[5] = Inhibition of bacterial NDM-3 using CDC-1 as substrate incubated for 30 mins; parameters: species or system Bacteria
[6] = Inhibition of bacterial NDM-4 using CDC-1 as substrate incubated for 30 mins; parameters: species or system Bacteria
[7] = Inhibition of bacterial NDM-12 using CDC-1 as substrate incubated for 30 mins; parameters: species or system Bacteria
[8] = Inhibition of bacterial NDM-13 using CDC-1 as substrate incubated for 30 mins; parameters: species or system Bacteria
[9] = Competitive inhibition of bacterial NDM-1 using CDC-1 as substrate and measured by Dixon plot analysis; parameters: species or system Bacteria
[10] = test system: HEK293; assay: Cytotoxicity against human HEK293 cells at 1 to 100 uM and measured by MTT assay; type: toxicity, cell-based; conditions: hek293, 100 µM, dose 1-100 µM
[11] = test system: HEK293; assay: Cytotoxicity against human HEK293 cells at 50 uM and measured by Calcien AM staining method; type: toxicity, cell-based; conditions: hek293, 50 µM
[12] = test system: HEK293; assay: Cytotoxicity against human HEK293 cells at 50 uM and measured by propidium iodide (PI) staining method; type: toxicity, cell-based; conditions: hek293, 50 µM
[13] = test system: Escherichia coli; assay: Potentiation of meropenem-induced antibacterial activity against Escherichia coli expressing NDM-1 at 0.25 ug/ml assessed as meropenem MIC by broth microdilution method; type: functional; conditions: dose 0.25 µg/ml
[14] = test system: Escherichia coli; assay: Potentiation of meropenem-induced antibacterial activity against Escherichia coli expressing NDM-1 at 8 ug/ml assessed as meropenem MIC by broth microdilution method; type: functional; conditions: dose 8 µg/ml
[15] = test system: Bacteria; assay: Reversible inhibition of bacterial NDM-1 at 10 uM incubated for 30 mins

| IC50 [1] | IC50 [3] | IC50 [4] | SMILES | further results |
| --- | --- | --- | --- | --- |
| > 50000 nM | – | – | O=C(O)C1=C(CSC(=O)c2ccccc2)CS[C@@H]2CC(=O)N12 | – |
| – | – | – | C[C@@H](O)[C@H]1C(=O)N2C(C(=O)O)=C(S[C@@H]3CN[C@H](C(=O)N(C)C)C3)[C@H](C)[C@H]12 [MEROPENEM] | MIC [2]: 0.031 µg/mL (≈ 0.0808 µM) |
| 310 nM | 0.8 µM | 5.2 µM | CCS[C@H]1C(=O)N2C(C(=O)O)=C(CSC(=O)c3ccccc3)CS[C@H]12 | – |
| 1400 nM | – | – | CC(C)O[C@H]1C(=O)N2C(C(=O)O)=C(CSC(=O)c3ccccc3)CS[C@H]12 | – |
| 620 nM | – | – | CCOC(=O)CSCC1=C(C(=O)O)N2C(=O)[C@H](OC)[C@H]2SC1 | – |
| 550 nM | 16 µM | 13 µM | CO[C@H]1C(=O)N2C(C(=O)O)=C(CSc3nnc(C)s3)CS[C@H]12 | – |
| 130 nM | 8 µM | 6 µM | CO[C@H]1C(=O)N2C(C(=O)O)=C(CSc3nc4ccccc4s3)CS[C@H]12 | IC50 [5]: 190 nM; IC50 [6]: 210 nM; IC50 [7]: 200 nM; IC50 [8]: 160 nM; Ki [9]: 210 nM; Activity [10]: Non-Toxic; Activity [11]: Non-Toxic; Activity [12]: Non-Toxic; MIC [13]: 32 µg/mL; MIC [14]: 16 µg/mL; inhibition [15]: Active |
| 990 nM | – | – | CO[C@H]1C(=O)N2C(C(=O)O)=C(COC(C)=O)CS[C@H]12 | – |
| > 50000 nM | – | – | CO[C@H]1C(=O)N2C(C(=O)O)=C(CSC(=O)c3ccccc3)CS(=O)(=O)[C@H]12 | – |
| > 50000 nM | 7.9 µM | 9.1 µM | CO[C@H]1C(=O)N2C(C(=O)O)=C(CSC(=O)c3ccccc3)CS[C@H]12 | – |
| > 50000 nM | – | – | O=C(O)C1=C(CSc2nc3ccccc3s2)CS[C@@H]2CC(=O)N12 | – |
| 7400 nM | 4.6 µM | 3.6 µM | CCO[C@H]1C(=O)N2C(C(=O)O)=C(CSC(=O)c3ccccc3)CS[C@H]12 | – |
| 200 nM | 8.4 µM | 5.8 µM | CO[C@H]1C(=O)N2C(C(=O)O)=C(CSc3ccc(NC(C)=O)cc3)CS[C@H]12 | – |
| 9600 nM | – | – | CO[C@@]1(NC(=O)Cc2ccccc2)C(=O)N2C(C(=O)O)=C(CSC(=O)c3ccccc3)CS[C@@H]21 | – |
| 2000 nM | 7.4 µM | 8.1 µM | CO[C@H]1C(=O)N2C(C(=O)O)=C(CSc3ccccc3)CS[C@H]12 | – |
| 9400 nM | – | – | O=C(Cc1ccccc1)N[C@@H]1C(=O)N2C(C(=O)O)=C(CSC(=O)c3ccccc3)CS[C@H]12 | – |
| > 50000 nM | – | – | CO[C@H]1C(=O)N2C(C(=O)O)=C(C)CS[C@H]12 | – |
| 500 nM | 5.5 µM | 7.3 µM | CO[C@H]1C(=O)N2C(C(=O)O)=C(CSc3ccc(C(F)(F)F)cc3)CS[C@H]12 | – |
| 460 nM | – | – | O=C(O)C1=C(CSC(=O)c2ccccc2)CS[C@@H]2[C@@H](O)C(=O)N12 | – |
| 630 nM | 20 µM | 5.5 µM | CO[C@H]1C(=O)N2C(C(=O)O)=C(CSc3nnnn3C)CS[C@H]12 | – |
| 220 nM | – | – | O=C(Cc1ccccc1)N[C@H]1C(=O)N2C(C(=O)O)=C(CSC(=O)c3ccccc3)CS[C@H]12 | – |
| 1200 nM | – | – | CCSCC1=C(C(=O)O)N2C(=O)[C@H](OC)[C@H]2SC1 | – |
| 540 nM | – | – | O=C(O)CN(CCN(CC(=O)O)CC(=O)O)CC(=O)O [EDETIC ACID] | – |
| 250 nM | – | – | CO[C@H]1C(=O)N2C(C(=O)O)=C(CSC(=O)c3ccccc3)C[S+]([O-])[C@H]12 (stereo not given in full) | – |
| 630 nM | 8.8 µM | 8.6 µM | CO[C@H]1C(=O)N2C(C(=O)O)=C(CSc3ncccn3)CS[C@H]12 | – |
| 760 nM | 15 µM | 1 µM | CO[C@H]1C(=O)N2C(C(=O)O)=C(CSc3nc4ccc([N+](=O)[O-])cc4s3)CS[C@H]12 | – |
| 1600 nM | 15 µM | 8.1 µM | CO[C@H]1C(=O)N2C(C(=O)O)=C(CSc3nncs3)CS[C@H]12 | – |

| SMILES | IC50 [1] | IC50 [3] | IC50 [4] | further results |
| --- | --- | --- | --- | --- |
| CO[C@H]1C(=O)N2C(C(=O)O)=C(C[Se]c3ccccc3)CS[C@H]12 | 190 nM | 6.6 µM | 6 µM | – |
